Measured values reported in PMC10805834, “Population pharmacokinetic modeling of ilaprazole in healthy subjects and patients with duodenal ulcer in China” (Frontiers in Pharmacology, 2024).
Read-outs that look alike come from different tables or passages of the source.

Tests used:
[1] = Population pharmacokinetic (PopPK) model of ilaprazole, intravenous infusion, pooled data of 4 phase I and 1 phase IIa trials; format: in vivo, human; parameters: Disease status effect on Vp (Disease status = 1): scale not given here; key to ω^2 Vp, inter-individual variability / ω^2 CL, inter-individual variability: variance ω^2 of log-normal (exponential) inter-individual random effect η
Description: Data used to construct the PopPK model in current study were collected from 5 clinical trials of ilaprazole injection, including 4 phase I (No. CTR20132848, No. CTR20140147, No. CTR20150686, No. CTR20150685) clinical trials in healthy subjects, and 1 phase IIa (No. CTR20132846) clinical trial in patients with duodenal ulcer ([Wang et al., 2016a]; [Wang et al., 2016b]; [Wang et al., 2019]). All above studies included in this analysis were reviewed and approved by the Institutional Ethics Committee, registered in the China Clinical Trials Registry Center (chinadrugtrials.org.cn), and conducted in strict adherence to Good Clinical Practice and the Declaration of Helsinki.
The single-dose phase I study (No. CTR20132848) was a randomized, open, four-cycle crossover trial in which 16 healthy subjects were randomized into four groups and were given either oral control drug or intravenous infusion of 5, 10 or 20 mg of ilaprazole during different cycles, after a 1-week washout period, and then separately after crossover. In the multiple-dose phase I study (No. CTR20140147), 10 healthy subjects received a 5-day continuous intravenous infusion of 10 mg ilaprazole once daily. The next studies (No. CTR20150686, No. CTR20150685) were conducted in healthy subjects with a single 30 mg intravenous infusion of ilaprazole, and a 20 mg loading dose combined with a 10 mg maintenance dose for a total of 3 days of intravenous infusion of ilaprazole. In the phase IIa study (No. CTR20132846), 20 patients with duodenal ulcer were randomized to receive a 20 mg loading dose plus a 10 mg maintenance dose of intravenous infusion of ilaprazole once daily or a positive control drug.
Blood samples were collected for clinical pharmacokinetic analysis of ilaprazole in all studies, and the specific sampling designs are summarized in Table 1. To determine the concentration of ilaprazole in human plasma, a validated UPLC-MS/MS method was utilized, with the samples being processed by protein precipitation ([Wang et al., 2012]). The analytes were chromatographed on Acquity UPLC BEH C18 column (waters, MA, United States), and the detection was performed on Xevo-TQS tandem mass spectrometer coupled with an electro-spray ionization (ESI) source (waters, MA, United States). It is notable that ilaprazole concentration remained linear in the range of 1–1,000 ng/mL, with the lower limit of quantification of 1 ng/mL. After excluding 5 concentrations below the limit of quantification (BLQ) and 7 concentrations not detected (ND), a total of 1,560 plasma concentration from 58 subjects who received intravenous infusion of ilaprazole were included in the final PopPK analysis.
Based on the pooled data from the clinical studies mentioned above, the PopPK model for ilaprazole was constructed using non-linear mixed-effects model of Phoenix NLME (version 8.3; Certara Inc, Princeton, NJ, United States). We developed the PopPK model using the first-order conditional estimation extended least squares (FOCE-ELS) method. The specific modeling steps are as follows.
For the basic structural model, one-compartment and two-compartment models were tested to fit the data set according to the plasma concentration-time profile of ilaprazole, plotted on a semi-logarithmic scale. Based on the fact that the distribution of the population pharmacokinetic (PK) parameters essentially conforms to a log-normal distribution, the inter-individual variability in pharmacokinetic parameters was estimated by an exponential model (Eq. 1). Pik=Ppoppk*exp ηik (1)
In Eq. 1, Pik represents the kth pharmacokinetic parameter for the ith individual, Ppopk represents the typical value of the parameter in population, and ηik depicts the deviation between the kth pharmacokinetic parameter of the ith individual and the typical value of the population (i.e., random effect), It is assumed that η follows a normal distribution centered at 0 with variance ω^2. […]

[2] = parameters: method as in Sachs et al., 2006; Shin et al., 2014; conditions: ref Sachs et al., 2006; Shin et al., 2014; cited from earlier work
[3] = parameters: method as in Wang et al., 2019; conditions: ref Wang et al., 2019, cited from earlier work
[4] = cited from earlier work
[5] = cited from earlier work; remark: listed apart in the source
[6] = parameters: method as in Shen et al., 2020; Jiang et al., 2021; conditions: rats; intravenous injection of 14C-ilaprazole; ref Shen et al., 2020; Jiang et al., 2021; cited from earlier work

COc1ccnc(C[S+]([O-])c2nc3cc(-n4cccc4)ccc3[nH]2)c1C (centres unmarked) [ilaprazole, 2-[[(4-methoxy-3-methyl)-2-pyridinyl]methyl-sulfinyl]-5-(1H-pyrol-1-yl)-1H-benzimidazole]
CL, clearance of central compartment ([1]; bootstrap median (n = 1,000)): 3.394 L/h
V, volume of central compartment ([1]; bootstrap median (n = 1,000)): 6.819 L
Vp, volume of peripheral compartment ([1]; bootstrap median (n = 1,000)): 5.480 L
WT effect on Vp ([1]; bootstrap median (n = 1,000)): 1.573
σmult, residual variability ([1]; bootstrap median (n = 1,000)): 0.182
ω^2 CL, inter-individual variability ([1]; bootstrap median (n = 1,000)): 0.057
ω^2 V, inter-individual variability ([1]; bootstrap median (n = 1,000)): 0.013
ω^2 Vp, inter-individual variability ([1]; bootstrap median (n = 1,000)): 0.033
Disease status effect on Vp (Disease status = 1) ([1]; bootstrap median (n = 1,000), duodenal ulcer): 0.356
clearance ([1]; both sexes, human, plasma, intravenous, final model estimate, read-out: CL, clearance of central compartment, typical value (converted)): 56.6 mL/min
ω^2 CL, inter-individual variability ([1]; final model estimate): 0.059
ω^2 V, inter-individual variability ([1]; final model estimate): 0.013
ω^2 Vp, inter-individual variability ([1]; final model estimate): 0.032
Disease status effect on Vp (Disease status = 1) ([1]; final model estimate, Disease status = 1 for duodenal ulcer): 0.356
V, volume of central compartment, typical value ([1]; final model estimate, IV infusion, Chinese healthy subjects and duodenal ulcer patients): 6.795 L
Vp, volume of peripheral compartment, typical value ([1]; final model estimate, median weight 60.6 kg): 5.544 L
σmult, residual variability ([1]; final model estimate, multiplicative residual error): 0.184
WT effect on Vp ([1]; final model estimate, power exponent on Weight/60.6): 1.545
half-life (t1/2) [2]: 4.7 to 5.3 h
AUC0‐∞ ([3]; duodenal ulcers patients): 4.9 µg·h/mL
Cmax ([3]; duodenal ulcers patients): 1,540 ng/mL
AUC0‐∞ ([3]; healthy subjects): 7.4 µg·h/mL
Cmax ([3]; healthy subjects): 1871.3 ng/mL
LogP [4]: 3.04
plasma protein binding capacity [5]: more than 97%
radioactive signal in tissues/organs [6]: can still be observed in the stomach after 24 h
